{"source": "patent US10342776B2", "about": "“Compositions and methods for controlling infections” (priority 2004, dated 2019)", "key": {"[1]": {"tested_on": "Candida albicans (clinical isolates, yeast phase)", "assay": "Yeast phase Candida albicans liquid cultures with GML, CFU/ml by plating", "type": "cell-based", "description": "The Candida albicans samples that were tested in the experiments described in Examples 2 and 3 were recent clinical isolates. The strains were of low passage and were maintained on Todd Hewitt (Difco Laboratories, Detroit, Mich.) agar plates. The organisms were transferred to 25 ml Todd Hewitt broth cultures in 125 ml Erlenmeyer flasks and grown overnight at 37° C. in 7% CO2 with shaking at 200 revolutions per minute (RPM). The next morning the organisms were transferred to new 125 ml flasks containing 25 ml Todd Hewitt medium at a final concentration of 1×10^6 colony forming units (CFU)/ml. […] The GML was made up at a concentration of 100,000 μg/ml in absolute ethanol for addition to the flasks. […] The flasks were cultured for up to 24 hours at 37° C. in 7% CO2 with shaking at 200 revolutions per minute. […] This experiment was performed twice.\nThe effect of growing yeast phase organisms of a clinical isolate of Candida albicans in the presence of GML was tested in liquid cultures as described in Example 1. […] The GML-mediated killing effect was not seen in cultures containing 20 and 10 μg/ml of GML. […] The experiment was repeated with identical results. The experiment was also carried out with a second clinical isolate of Candida albicans."}, "[2]": {"tested_on": "Candida albicans (five clinical isolates)", "assay": "Growth inhibition of five other clinical isolates of Candida albicans in liquid culture (absorbance at 600 nm, CFU/ml)", "type": "cell-based", "details": "for average CFU/ml after culturing: 6 hours, start about 10^6 CFU/ml", "description": "Five clinical isolates of Candida albicans (separate from those tested in experiments described in Example 2) were tested for susceptibility to growth inhibition by GML. The data in FIG. 3 are the means of values obtained by separately testing each of the five clinical isolates. The experiments were performed in liquid culture as described in Example 2 except that, instead of measuring the number of organisms in the cultures by plating on agar plates, values of absorbance at 600 nm were determined at the indicated time points. An absorbance value of 6.5 corresponds to about 5×10^8 CFU/ml of Candida albicans. The growth of all of the isolates was inhibited by GML. Culturing for 6 hours 0.1 ml aliquots of the isolates (containing about 10^6 CFU/ml) in 100 μg/ml and 500 μg/ml of GML yielded an average of about 700 CFU/ml and about 400 CFU/ml, respectively."}, "Aspergillus fungi": {"tested_on": "Aspergillus fungi", "assay": "Mycelium formation on Todd Hewitt agar plates containing GML, Aspergillus", "type": "cell-based", "details": "for mycelium growth on plates: 36 hours, room temperature", "description": "(§1) Organisms (at the spore phase) of Aspergillus and Penicillium fungi obtained from nature were separately streaked on Todd Hewitt agar plates containing various concentrations of GML. The plates were incubated at room temperature for 36 hours after which mycelium growth was determined by direct visual examination. […] In contrast, the organisms grew on plates containing 0 and 50 μg/ml."}, "Penicillium fungi": {"tested_on": "Penicillium fungi", "assay": "Mycelium formation on Todd Hewitt agar plates containing GML, Penicillium", "type": "cell-based", "details": "for mycelium growth on plates: 36 hours, room temperature", "description": "as §1"}, "[3]": {"tested_on": "Gardnerella vaginalis (clinical isolate)", "assay": "G. vaginalis liquid culture in dialyzable beef heart medium with GML, colony counting", "type": "cell-based", "description": "(§2) Cells (1.2×10^7/ml in a total volume of 25 ml of dialyzable beef heart medium) of a recent clinical isolate of the gram negative rod Gardnerella vaginalis in vitro were cultured for various lengths of time with various concentrations of GML. At the various time points, the concentration of bacteria in the cultures were determined by colony counting on chocolate agar plates. GML at concentrations as low as 5 μg/ml were bactericidal to G. vaginalis. […] This finding points to the likely efficacy of GML in vivo. Moreover, GML (5 μg/ml or greater) inhibited growth of G. vaginalis plated (0.1 ml at 1.2×10^7/ml) onto chocolate agar plates (Table 3; data obtained after 24 hours of culturing)."}, "Gardnerella vaginalis": {"tested_on": "Gardnerella vaginalis", "assay": "G. vaginalis growth on chocolate agar plates with GML", "type": "cell-based", "details": "24 hours", "description": "as §2"}, "[4]": {"tested_on": "Bacteroides fragilis ATCC 25285", "assay": "Kinetics of growth inhibition of Bacteroides fragilis in WC broth with GML, plate colony counting", "type": "cell-based", "description": "The kinetics of growth-inhibition by GML of the obligate gram negative anaerobe Bacteroides fragilis ATCC 25285 was determined. An overnight culture of B. fragilis ATCC 25285 in Wilkens Chalgren (WC) broth was inoculated into fresh media (WC) to give a starting cell concentration of 1×10^7 cells/ml. […] […] Because growth of B. fragilis was inhibited by GML, it is expected that growth of the related gram negative anaerobe, Prevotella, would also be inhibited by GML."}, "Escherichia coli": {"tested_on": "Escherichia coli", "assay": "Direct toxicity of GML to Escherichia coli", "type": "cell-based", "text": "Thus, it was surprising to discover that a number of other bacterial genera (see below) were highly sensitive to the direct toxic effects of GML."}, "Staphylococcus aureus": {"tested_on": "Staphylococcus aureus", "details": "earlier work, U.S. application Ser. No. 10/986,512; cited from earlier work"}, "Neisseria gonorrheae": {"tested_on": "Neisseria gonorrheae", "details": "earlier work, U.S. application Ser. No. 10/986,512; cited from earlier work"}, "[5]": {"details": "first clinical isolate, 50, 200 and 1000 μg/ml GML, by 4 hours"}, "[6]": {"details": "50 μg/ml GML, about 4 days compared to 36 hours"}, "[7]": {"details": "100 and 500 μg/ml GML, about 4 days"}}}
{"smiles": "CCCCCCCCCCCC(=O)OCC(O)CO", "note": "(stereo not drawn) [GML, glycerol monolaurate]", "values": [{"measurement": "growth in culture", "setting": "[1]; first clinical isolate, 20 and 10 μg/ml GML", "value": "grew to almost the same level as in the control cultures"}, {"measurement": "organisms detectable in culture", "setting": "[1]; [5]", "value": "no organisms were detectable"}, {"measurement": "reduction in CFU/ml", "setting": "[1]; [5]", "value": "> 5", "unit": "log"}, {"measurement": "number of organisms in culture compared to 0 μg/ml", "setting": "[1]; second clinical isolate, 50 μg/ml GML, 2, 4 and 6 hours", "value": "reduced at all time intervals sampled"}, {"measurement": "organisms detectable in culture", "setting": "[1]; second clinical isolate, 100 and 500 μg/ml GML, by 2 hours", "value": "no organisms were detectable"}, {"measurement": "average CFU/ml after culturing", "setting": "[2]; 100 μg/ml GML", "value": "about 700 CFU/ml"}, {"measurement": "average CFU/ml after culturing", "setting": "[2]; 500 μg/ml GML", "value": "about 400 CFU/ml"}, {"measurement": "growth of the isolates", "setting": "[2]; five clinical isolates, liquid culture, absorbance at 600 nm", "value": "inhibited"}, {"measurement": "mycelium growth on plates", "setting": "Aspergillus fungi; 50 μg/ml GML", "value": "grew"}, {"measurement": "colony size on plates", "setting": "Aspergillus fungi; [6]", "value": "larger in size"}, {"measurement": "mycelium growth on plates", "setting": "Aspergillus fungi; 100 and 500 μg/ml GML", "value": "failed to grow"}, {"measurement": "visible colonies on plates", "setting": "Aspergillus fungi; [7]", "value": "no visible colonies"}, {"measurement": "mycelium growth on plates", "setting": "Penicillium fungi; 50 μg/ml GML", "value": "grew"}, {"measurement": "colony size on plates", "setting": "Penicillium fungi; [6]", "value": "larger in size"}, {"measurement": "mycelium growth on plates", "setting": "Penicillium fungi; 100 and 500 μg/ml GML", "value": "failed to grow"}, {"measurement": "visible colonies on plates", "setting": "Penicillium fungi; [7]", "value": "no visible colonies"}, {"measurement": "Cells/ml (×10^7) at 6 hours", "setting": "[3]; GML 1 μg/ml", "value": "13 Cells/ml (×10^7)"}, {"measurement": "Cells/ml (×10^7) at 24 hours", "setting": "[3]; GML 1 μg/ml", "value": "208 Cells/ml (×10^7)"}, {"measurement": "Cells/ml (×10^7) at 6 hours", "setting": "[3]; GML 5 μg/ml", "value": "0.0002 Cells/ml (×10^7)"}, {"measurement": "Cells/ml (×10^7) at 24 hours", "setting": "[3]; GML 5 μg/ml", "value": "0.0004 Cells/ml (×10^7)"}, {"measurement": "Cells/ml (×10^7) at 6 hours", "setting": "[3]; GML 10 μg/ml", "value": "<0.000001 Cells/ml (×10^7)"}, {"measurement": "Cells/ml (×10^7) at 24 hours", "setting": "[3]; GML 10 μg/ml", "value": "<0.000001 Cells/ml (×10^7)"}, {"measurement": "Cells/ml (×10^7) at 6 hours", "setting": "[3]; GML 20 μg/ml", "value": "<0.000001 Cells/ml (×10^7)"}, {"measurement": "Cells/ml (×10^7) at 24 hours", "setting": "[3]; GML 20 μg/ml", "value": "<0.000001 Cells/ml (×10^7)"}, {"measurement": "Cells/ml (×10^7) at 6 hours", "setting": "[3]; GML 50 μg/ml", "value": "<0.000001 Cells/ml (×10^7)"}, {"measurement": "Cells/ml (×10^7) at 24 hours", "setting": "[3]; GML 50 μg/ml", "value": "<0.000001 Cells/ml (×10^7)"}, {"measurement": "Cells/ml (×10^7) at 6 hours", "setting": "[3]; GML 100 μg/ml", "value": "<0.000001 Cells/ml (×10^7)"}, {"measurement": "Cells/ml (×10^7) at 24 hours", "setting": "[3]; GML 100 μg/ml", "value": "<0.000001 Cells/ml (×10^7)"}, {"measurement": "Cells/ml (×10^7) at 6 hours", "setting": "[3]; GML 1000 μg/ml", "value": "<0.000001 Cells/ml (×10^7)"}, {"measurement": "Cells/ml (×10^7) at 24 hours", "setting": "[3]; GML 1000 μg/ml", "value": "<0.000001 Cells/ml (×10^7)"}, {"measurement": "GML concentration bactericidal to G. vaginalis", "setting": "[3]; liquid culture", "value": "≥ 5", "unit": "µg/mL"}, {"measurement": "GML concentration that inhibited growth of G. vaginalis", "setting": "Gardnerella vaginalis", "value": "≥ 5", "unit": "µg/mL"}, {"measurement": "Growth Characteristics", "setting": "Gardnerella vaginalis; GML 1 μg/ml", "value": "Confluent growth"}, {"measurement": "Growth Characteristics", "setting": "Gardnerella vaginalis; GML 5 μg/ml", "value": "No visible growth"}, {"measurement": "Growth Characteristics", "setting": "Gardnerella vaginalis; GML 10 μg/ml", "value": "No visible growth"}, {"measurement": "Growth Characteristics", "setting": "Gardnerella vaginalis; GML 20 μg/ml", "value": "No visible growth"}, {"measurement": "Growth Characteristics", "setting": "Gardnerella vaginalis; GML 50 μg/ml", "value": "No visible growth"}, {"measurement": "Growth Characteristics", "setting": "Gardnerella vaginalis; GML 100 μg/ml", "value": "No visible growth"}, {"measurement": "Cells/ml ×10^7 at 4.5 hours", "setting": "[4]; GML 1 μg/ml, 4.5 hours", "value": 16, "unit": "Cells/ml ×10^7"}, {"measurement": "Cells/ml ×10^7 at 25 hours", "setting": "[4]; GML 1 μg/ml", "value": 130, "unit": "Cells/ml ×10^7"}, {"measurement": "Cells/ml ×10^7 at 4.5 hours", "setting": "[4]; GML 10 μg/ml, 4.5 hours", "value": 1.4, "unit": "Cells/ml ×10^7"}, {"measurement": "Cells/ml ×10^7 at 25 hours", "setting": "[4]; GML 10 μg/ml", "value": 150, "unit": "Cells/ml ×10^7"}, {"measurement": "Cells/ml ×10^7 at 4.5 hours", "setting": "[4]; GML 20 μg/ml, 4.5 hours", "value": "<0.01", "unit": "Cells/ml ×10^7"}, {"measurement": "fold fewer bacteria than the control culture", "setting": "[4]; GML 20 μg/ml, 4.5 hours", "value": "at least 1,000 fold"}, {"measurement": "regrowth of culture", "setting": "[4]; GML 20 μg/ml, 24 hours", "value": "regrowth was observed"}, {"measurement": "Cells/ml ×10^7 at 25 hours", "setting": "[4]; GML 20 μg/ml", "value": 200, "unit": "Cells/ml ×10^7"}, {"measurement": "Cells/ml ×10^7 at 4.5 hours", "setting": "[4]; GML 50 μg/ml, 4.5 hours", "value": "<0.01", "unit": "Cells/ml ×10^7"}, {"measurement": "Cells/ml ×10^7 at 25 hours", "setting": "[4]; GML 50 μg/ml", "value": "<10", "unit": "Cells/ml ×10^7"}, {"measurement": "Cells/ml ×10^7 at 4.5 hours", "setting": "[4]; GML 100 μg/ml, 4.5 hours", "value": "<0.001", "unit": "Cells/ml ×10^7"}, {"measurement": "Cells/ml ×10^7 at 25 hours", "setting": "[4]; GML 100 μg/ml", "value": "<10", "unit": "Cells/ml ×10^7"}, {"measurement": "growth of B. fragilis bacteria", "setting": "[4]; GML 50 and 100 μg/ml", "value": "inhibited the growth"}, {"measurement": "resistance to direct toxicity by GML", "setting": "Escherichia coli", "value": "relatively resistant"}, {"measurement": "resistance to direct toxic effects of GML", "setting": "Staphylococcus aureus", "value": "relatively resistant"}, {"measurement": "resistance to direct toxic effects of GML", "setting": "Neisseria gonorrheae", "value": "relatively resistant"}]}
